System: blood
Experiment: Anticoagulant activity by prothrombin time in rat blood (CoaguChek X)
Set-up: species or system male SD rats
Conditions: 278 µg/mL in rat blood, n = 3; versus normal saline and no-addition groups
Method: The anticoagulant activity of the compound was assessed by measuring prothrombin time according to the reference [Sulakshan Sulakshana et al., Anesth Essays Res., 2021, 15(4): 341-347].
The experimental method and steps are as follows: • 1) About 2 mL of blood was obtained from the abdominal aorta of male SD rats (8 weeks old). One sample corresponded to one rat, and n = 3. • 2) Each substance was added to the blood at a concentration of 27.8 µg/mL or 278 µg/mL, and mixing was performed (generally, 27.8 µg/mL was used for transfusion). • 3) To assess the anticoagulant effect of the samples, prothrombin time was measured using CoaguChek X (Sekisui Medical).
• 1) Normal saline; • 2) Unfractionated heparin (UFH), sodium heparin injection 5000 units/5 mL, Mochida (average molecular weight: 15000); • 3) Fragmin: low molecular weight heparin, average molecular weight of 5000, 5000 units/5 mL; • 4) Arixtra: […], average molecular weight of 1728 (5 mers), 5000 units/5 mL; • 5) No addition.

## CO[C@H]1O[C@H](COS(=O)(=O)O)[C@@H](O[C@@H]2O[C@@H](C(=O)O)[C@@H](O[C@H]3O[C@H](COS(=O)(=O)O)[C@@H](O[C@@H]4O[C@H](C(=O)O)[C@@H](O[C@H]5O[C@H](COS(=O)(=O)O)[C@@H](O)[C@H](O)[C@H]5NS(=O)(=O)O)[C@H](O)[C@H]4O)[C@H](OS(=O)(=O)O)[C@H]3NS(=O)(=O)O)[C@H](O)[C@H]2OS(=O)(=O)O)[C@H](O)[C@H]1NS(=O)(=O)O [Arixtra]
  prothrombin time: significantly longer
